Test results from patent US8063077B2, “Factor Xa inhibitors” (Millennium Pharmaceuticals, Inc., priority 2006, dated 2011).

Target: T1, human plasma protein factor Xa (Homo sapiens, UniProt P00742)
T1 construct: The human plasma protein factor Xa was purchased from Haematologic Technologies; purchased Haematologic Technologies (Essex Junction, Vt.); host or cells: human plasma
Assay: Factor Xa IC50 determination, cleavage of paranitroanilide substrate S-2765
Assay type: biochemical
Conditions: factor Xa 1 nM, S2765 100 μM, Tris buffered saline pH 7.4, 5% DMSO
From the text: This example illustrates methods for evaluating the compounds of the invention, along with results obtained for such assays. The in vitro and in vivo human Factor Xa activities of the inventive compounds can be determined by various procedures known in the art, such as a test for their ability to inhibit the activity of human plasma Factor Xa. […] The IC50 value is the concentration (in nM) of the compound required to provide 50% inhibition of human Factor Xa proteolytic activity.
An in vitro assay for detecting and measuring inhibition activity against Factor Xa is as follows:
The substrate S-2765 (Z-D-Arg-Gly-Arg-pNA•HCl) was obtained from Diapharma (West Chester, Ohio).
The human plasma protein factor Xa was purchased from Haematologic Technologies (Essex Junction, Vt.).
All assays, which are performed in 96-well microtiter plates, measure proteolytic activity of the enzyme (factor Xa) by following cleavage of a paranitroanilide peptide substrate. The assay buffer used for proteolytic assays was Tris buffered saline (20 mM Tris, 150 mM NaCl, 5 mM CaCl2, 0.1% Bovine serum albumin (BSA), 5% Dimethly Sulfoxide (DMSO) pH 7.4). In a 96-well microtiter plate, inhibitor was serially diluted to give a range of final concentrations from 0.01 nM to 10 μM. Duplicate sets of wells were assayed and control wells without inhibitor were included. Enzyme was added to each well, (factor Xa concentration=1 nM), the plate was shaken for 5 seconds and then incubated for 5 minutes at room temperature. S2765 was added (100 μM final) and the plate was shaken for 5 seconds (final volume in each well was 200 μl). The degree of substrate hydrolysis was measured at 405 nm on a Thermomax plate reader (Molecular Devices, Sunnyvale, Calif.) for 2 minutes. The initial velocities of substrate cleavage (mOD/min), for each range of inhibitor concentrations, were fitted to a four parameter equation using Softmax data analysis software. The parameter C, derived from the resulting curve-fit, corresponded to the concentration for half maximal inhibition (IC50).

T1 sequence (P00742 235-488 limits assumed): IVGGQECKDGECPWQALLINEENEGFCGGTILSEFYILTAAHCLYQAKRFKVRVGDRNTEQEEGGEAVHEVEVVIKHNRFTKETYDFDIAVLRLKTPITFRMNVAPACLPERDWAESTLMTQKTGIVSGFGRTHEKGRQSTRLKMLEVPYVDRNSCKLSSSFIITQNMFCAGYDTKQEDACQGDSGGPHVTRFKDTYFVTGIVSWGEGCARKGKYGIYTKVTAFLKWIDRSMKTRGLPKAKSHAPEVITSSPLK
T1 sequence (P00742 41-179 partner limits assumed): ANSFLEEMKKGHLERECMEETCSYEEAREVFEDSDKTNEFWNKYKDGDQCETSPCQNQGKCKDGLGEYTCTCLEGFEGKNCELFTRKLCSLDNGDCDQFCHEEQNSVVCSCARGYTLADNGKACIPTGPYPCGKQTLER

| SMILES | IC50 [nM] |
| --- | --- |
| O=C(NCc1cn(-c2ccc(-n3ccccc3=O)cc2N2CCSCC2)cn1)c1ccc(Cl)s1 [Compound 24, 5-Chloro-N-((1-(4-(2-oxopyridin-1(2H)-yl)-2-thiomorpholinophenyl)-1H-imidazol-4-yl)methyl)thiophene-2-carboxamide] | ≤ 100 |
| O=C(NCc1cn(-c2ccc(-n3ccccc3=S)cc2)cn1)c1ccc(Cl)s1 [Compound 30, 5-Chloro-N-((1-(4-(2-thioxopyridin-1(2H)-yl)phenyl)-1H-imidazol-4-yl)methyl)thiophene-2-carboxamide] | ≤ 100 |
| Cc1cccc(=O)n1-c1ccc(-n2cnc(CNC(=O)c3ccc(Cl)s3)c2)cc1 [Compound 14, 5-chloro-N-((1-(4-(6-methyl-2-oxopyridin-1(2H)-yl)phenyl)-1H-imidazol-4-yl)methyl)thiophene-2-carboxamide] | ≤ 100 |
| O=C(NCc1cn(-c2ccc(-n3ccc(=O)[nH]c3=O)cc2)cn1)c1ccc(Cl)s1 [Compound 47, 5-chloro-N-((1-(4-(2,4-dioxo-3,4-dihydropyrimidin-1(2H)-yl)phenyl)-1H-imidazol-4-yl)methyl)thiophene-2-carboxamide] | ≤ 100 |
| C[S+]([O-])c1nc(CNC(=O)c2ccc(Cl)s2)cn1-c1ccc(-n2ccccc2=O)cc1 (centres unmarked) [Compound 57, 5-chloro-N-((2-(methylsulfinyl)-1-(4-(2-oxopyridin-1(2H)-yl)phenyl)-1H-imidazol-4-yl)methyl)thiophene-2-carboxamide] | ≤ 100 |
| CS(=O)(=O)c1nc(CNC(=O)c2ccc(Cl)s2)cn1-c1ccc(-n2ccccc2=O)cc1 [Compound 56, 5-chloro-N-((2-(methylsulfonyl)-1-(4-(2-oxopyridin-1(2H)-yl)phenyl)-1H-imidazol-4-yl)methyl)thiophene-2-carboxamide] | ≤ 100 |
| Cc1c(CNC(=O)c2ccc(Cl)s2)ncn1-c1ccc(-n2ccccc2=O)cc1 [Compound 63, 5-Chloro-N-((5-methyl-1-(4-(2-oxopyridin-1(2H)-yl)phenyl)-1H-imidazol-4-yl)methyl)thiophene-2-carboxamide] | ≥ 500 |
| O=C(NCc1cn(-c2ccc(-n3ccccc3=O)c(F)c2)cn1)c1ccc(Cl)s1 [Compound 40, 5-chloro-N-((1-(3-fluoro-4-(2-oxopyridin-1(2H)-yl)phenyl)-1H-imidazol-4-yl)methyl)thiophene-2-carboxamide] | ≤ 100 |
| O=C(NCc1cn(-c2ccc(-n3ncccc3=O)cc2)cn1)c1ccc(Cl)s1 [Compound 13, 5-Chloro-N-((1-(4-(6-oxopyridazin-1(6H)-yl)phenyl)-1H-imidazol-4-yl)methyl)thiophene-2-carboxamide] | ≥ 500 |
| O=C(NCc1cn(-c2ccc(-n3ccnc(O)c3=O)cc2)cn1)c1ccc(Cl)s1 [Compound 58, 5-chloro-N-((1-(4-(3-hydroxy-2-oxopyrazin-1(2H)-yl)phenyl)-1H-imidazol-4-yl)methyl)thiophene-2-carboxamide] | ≤ 100 |
| O=C(NCc1cn(-c2ccc(N3CCCNC3=O)cc2)cn1)c1ccc(Cl)s1 [Compound 18, 5-Chloro-N-((1-(4-(2-oxo-tetrahydropyrimidin-1(2H)-yl)phenyl)-1H-imidazol-4-yl)methyl)thiophene-2-carboxamide] | ≤ 100 |
| C[S+]([O-])c1nc(CNC(=O)c2ccc(Cl)s2)cn1-c1ccc(-n2cccc(F)c2=O)cc1 (centres unmarked) [Compound 66, 5-chloro-N-((1-(4-(3-fluoro-2-oxopyridin-1(2H)-yl)phenyl)-2-(methylsulfinyl)-1H-imidazol-4-yl)methyl)thiophene-2-carboxamide] | ≤ 100 |
| NC(=O)/N=c1\ccccn1-c1ccc(-n2cnc(CNC(=O)c3ccc(Cl)s3)c2)cc1 [Compound 61, N-((1-(4-(2-(carbamoylimino)pyridin-1(2H)-yl)phenyl)-1H-imidazol-4-yl)methyl)-5-chlorothiophene-2-carboxamide] | ≤ 100 |
| O=C1CN(c2ccc(-n3cnc(CNC(=O)c4ccc(Cl)s4)c3)cc2)C(=O)CN1 [Compound 20, 5-Chloro-N-((1-(4-(2,5-dioxopiperazin-1-yl)phenyl)-1H-imidazol-4-yl)methyl)thiophene-2-carboxamide] | ≥ 500 |
